Reference: US20060258589A1, “Methods for enhancing radiation therapy” (IGF Oncology, LLC, priority 2004, published 2006)

Experiments:
[1] = tested on: MiaPaCa, LnCap, H226 and A549 cells; assay: In vitro assays: surviving fraction (colony formation) of cancer cells after X-ray irradiation; type: cell-based, human; details: hormone added before 200 rads X-rays; for sensitization to radiation: exponential phase cells; for cell killing by radiation: plateau-phase cells, at least some concentrations and times
Procedure: MiaPaCa (a human pancreatic cancer cell line), LnCap (a human prostate cancer cell line), H226 and A549 (two human lung cancer cell lines) are grown in monolayer cultures in McCoy's 5A medium containing 10% fetal bovine serum and buffered with 2.0 g/L sodium bicarbonate and 0.02 M Hepes, pH 7.4. The cells are at seeded at 6×10^4 cells per T30 flask. On day 3 the medium is changed. The cells are irradiated at either 4 days (exponential cells) or 7 days (plateau-phase cells). Twenty minutes before, 2 hours before, or immediately before irradiation, insulin (0.01, 0.1, or 1 μg/ml) or IGF-1 (3, 20, or 150 ng/ml) is added to the medium. Control cells have no added hormone. The cells are then irradiated with 200 rads X-rays. After irradiation, the cells are allowed to recover in the used medium for 60 minutes.
The cells are then typsinized and plated in fresh medium. The surviving fraction of a specific number of plated cells is determined by staining colonies with methylene blue after 7-10 days of growth.
Exponential-phase and plateau-phase cells are then treated with insulin and IGF-1 separately and together at their experimentally determined optimal concentrations immediately before, 15 minutes before, and 2 hours before irradiation with a range of radiation doses. Again, the cells are trypsinized and plated, and the percent surviving is determined.
Exponential- and plateau-phase cells are then treated with insulin at the optimal concentration in combination with 30 mM glucose.

[2] = tested on: LnCap, MiaPaCa, H226, and A549 tumors; assay: In vivo assays: growth of tumor volume after irradiation of subcutaneous tumors in nude mice; details: male nude mice; treated 30 minutes before 15 Gy X-rays; followed for 3 weeks
Procedure: LnCap, MiaPaCa, H226, and A549 cells are grown in culture. Cells are harvested using 0.25% trypsin, washed, suspended in Dulbecco's PBS, and counted. 1×10^6 cells are injected subcutaneously into the hind thigh of male nude mice. Tumors are grown to 250 mm^3 in ˜21 days. Tumors are measured with a caliper, and the tumor size is calculated by the formula a^2b/2, where a and b are the shorter and longer diameters of the tumor, respectively. When the tumors reach 250 mm^3, the mice are treated with insulin (5 or 40 μg/kg), IGF-1 (5 or 100 μg/kg) or insulin+glucose (5 g glucose/kg), or growth hormone (50 or 500 μg/kg), or saline control 30 minutes before radiation treatment. The mice are anesthetized immediately before radiation treatment, and then the tumor-bearing leg is irradiated with X-rays at 1.4 Gy/minute, receiving a dose of 15 Gy. The growth of tumor volume in the mice after irradiation is followed for 3 weeks.

breast cancer cells = details: tissue culture; methotrexate killing; cited from earlier work
[3] = another study; cited from earlier work
cancer cells = details: Ciftci 2003; cited from earlier work
[4] = tested on: soluble IGF-1 binding proteins; details: compared to native IGF-1; Francis 1992, Tomas 1993; cited from earlier work

For insulin, the sensitization to radiation [1] was “sensitized to radiation”, the “cell killing by radiation” value [1] was “increase cell killing by radiation” and the “effectiveness of radiation therapy (growth of tumor volume)” value (“effectiveness of radiation therapy” below) [2] was “enhance the effectiveness of radiation therapy”. The “enhancement of the killing of breast cancer cells” value (breast cancer cells) was “up to 10,000 fold” and the “enhancement of uptake of methotrexate” value [3] was 2 factor.

For growth hormone, the “effectiveness of radiation therapy” value [2] was “enhance the effectiveness of radiation therapy”.

With insulin-like growth factor-1 [IGF-1] the sensitization to radiation [1] was “sensitized to radiation”, the “cell killing by radiation” value [1] was “increase cell killing by radiation” and the “effectiveness of radiation therapy” value [2] was “enhance the effectiveness of radiation therapy”. For the same molecule, the “proportion of cells in the G2 and M phases of the cell cycle” value (cancer cells) was “moves a greater proportion of the cells into the G2 and M phases”.

B1: LONG-R3-IGF-1: variant IGF-1 with reduced binding affinity for the soluble IGF-1 binding proteins (SEQ ID NO:1) (protein)
chain: MFPAMPLSSLFVNGPRTLCGAELVDALQFVCGDRGFYFNKPTGYSSSRRAPQTGIVDECCFRSCDLRRLEMYCAPLKPAKSA
modifications: LONG-R3-IGF-1 synthetic variant of IGF-1
In the case of B1, the “binding affinity for the soluble IGF-1 binding proteins” value [4] is given as “reduced binding affinity”.
